Data from patent publication US10682399B2, “Target peptides for colorectal cancer therapy and diagnostics” (University of Virginia Patent Foundation, priority 2012, dated 2020).
Non-standard residues stand in square brackets, D forms with d. No end group written: not given here. pS = N[C@@H](COP(=O)(O)O)C(=O)O

Experiments:
Healthy donor PBMC = test: Cultured IFNγ ELISpot on day 7, healthy donor PBMC; format: cell-based, human; conditions: day 7, HLA-matched healthy donors
Description: Healthy donor PBMC responses to the CRC tumor-specific phosphopeptides were assessed using a cultured IFNγ ELISpot on day 7.
Generally, quantification of T cell IFNγ production in response to peptides was performed by ELISpot as per manufacturer's instructions. In brief, ELISpotPRO wells, pre-coated with IFNγ monoclonal antibody mAb 1-D1K (MabTech, product code: 3420-2APW-2), were washed four times with sterile PBS and blocked for 30 minutes with 200 μl 10% RPMI 1640 after which the blocking medium was removed.
For ELISpot analysis, PBMCs and CD8+ T cells were isolated fresh from healthy donors and patients. 1×10^6 PBMCs were isolated from both disease patients and healthy donors and re-suspended in AIM-V media (10% human AB serum) in a 96 well plate. Peptide or phosphopeptides were added individually at 10 μg/ml and placed at 37° C. in CO2 incubator for 7 days. Cells were then harvested, washed four times, and re-challenged with either phosphopeptides, peptides, anti CD3 (OKT3, 100 ng/ml, Mabtech) as per manufacturer's instructions. Individual cytokine-producing cells were identified as dark spots after a 15 minute reaction with 5-bromo-4-chloro-3-indolyl phosphate and NBT by means of an alkaline phosphatase conjugate substrate (Mabtech).

CRC cell line SW620 = test: Killing of CRC cell line by phosphopeptide-specific T cell lines; format: cell-based, human; conditions: T cell lines established against the phosphopeptide
From the text: T cells lines were established against some of these key phosphopeptide targets.

[1] = tested on: Tumor infiltrating lymphocytes (TILs); test: TIL responses to phosphopeptides, multiplexed intracellular cytokine staining for IL-2, IFNγ, TNFα; format: cell-based, human
Description: Tumor infiltrating lymphocytes (“TILs”) from the same tumors, were extracted and expanded, and their responses to the phosphopeptides assessed using multiplexed intracellular cytokine staining for IL-2, IFNγ, and TNFα as depicted in FIG. 1A.
Tumor infiltrating lymphocytes (TILs) were also taken from the patient tumors at resection and expanded, using high-dose IL-2 (6000 IU/ml). TIL responses to the phosphopeptides were then tested using ICS. TILs were stimulated with phosphopeptide and cultured for 7 days before being re-stimulated in an intracellular cytokine staining assay assessing production of tumor necrosis factor alpha (TNFα), interferon gamma (IFNγ) and interleukin-2 (IL-2). The results are depicted in FIG. 6.

xenograft tumor = test: Xenograft tumor model system; format: in vivo
From the text: (§1) IRS proteins are adapter proteins that link signaling from upstream activators to multiple downstream effectors to modulate normal growth, metabolism, survival and differentiation.

CD8+ T cells = test: Immunization of HLA-A2 transgenic mice with phosphopeptide; format: in vivo, mouse; conditions: immunization with the phosphopeptide
Description: In some embodiments, the immunogenicity of a target peptide is measured using transgenic mice expressing human MHC class I genes. For example, “ADD Tg mice” express an interspecies hybrid class I MHC gene, AAD, which contains the α-1 and α-2 domains of the human HLA-A2.1 gene and the α-3 transmembrane and cytoplasmic domains of the mouse H-2Dd gene, under the transcriptional control of the human HLA-A2.1 promoter. Immunodetection of the HLA-A2.1 recombinant transgene established that expression was at equivalent levels to endogenous mouse class I molecules. The mouse α-3 domain expression enhances the immune response in this system. Compared to unmodified HLA-A2.1, the chimeric HLA-A2.1/H2-Dd MHC Class I molecule mediates efficient positive selection of mouse T cells to provide a more complete T cell repertoire capable of recognizing peptides presented by HLA-A2.1 Class I molecules.
The peptide epitopes presented and recognized by mouse T cells in the context of the HLA-A2.1/H2-Dd class I molecule are the same as those presented in HLA-A2.1^+ humans. […]
In some embodiments, the immunogenicity of a modified phosphopeptide is determined by the degree of Interferon gamma (IFNγ) and/or tumor necrosis factor-alpha (TNF-α) production of T cells from ADD Tg mice immunized with the target peptide, e.g., by immunization with target peptide pulsed bone marrow derived dendritic cells. […]

[2] = tested on: human melanoma and breast tumors; test: Recognition and killing of tumors in vitro by phosphopeptide-specific CD8+ T cells; format: cell-based
From the text: as §1

memory T cells = test: Phosphopeptide-specific memory T cell response in a patient; format: cell-based, human
From the text: The phrase “capable of inducing a target peptide-specific memory T cell response in a patient” as used herein relates to eliciting a response from memory T cells (also referred to as “antigen-experienced T cell”), which are a subset of infection- and cancer-fighting T cells that have previously encountered and responded to their cognate antigen. Such T cells can recognize foreign invaders, such as bacteria or viruses, as well as cancer cells. Memory T cells have become “experienced” by having encountered antigen during a prior infection, having encountered cancer, or via previous vaccination. At a second encounter with the cognate antigen (e.g., by way of an initial inoculation with a target peptide of the presently disclosed subject matter), memory T cells can reproduce to mount a faster and stronger immune response than the first time the immune system responded to the invader (e.g., through the body's own consciously unperceived recognition of a target peptide being associated with diseased tissue). This behavior can be assayed in T lymphocyte proliferation assays, which can reveal exposure to specific antigens.
Tensin 3 (TNS3) plays a role in actin remodeling. It is involved in the dissociation of the integrin-tensin-actin complex. EGF activates TNS4 and down-regulates TNS3 which results in capping the tail of ITGB1. […]

LPIFSRLsI (LPIFSRL[pS]I; listed as Homo sapiens) [ZFP36L2]
Healthy donor PBMC responses, IFNγ ELISpot (Healthy donor PBMC): many responses were seen | Killing of SW620 by phosphopeptide-specific T cell line (CRC cell line SW620): specifically kill

RPRARsVDAL (RPRAR[pS]VDAL; listed as Homo sapiens) [LISCH7]
TIL response ([1]; TILs from the tumor from which the phosphopeptides were identified, equivalent to the EBV peptide response): ~2 % of TILs

RTHsLLLLL (RTH[pS]LLLLL; listed as Homo sapiens) [RNASE4]
Healthy donor PBMC responses, IFNγ ELISpot (Healthy donor PBMC): many responses were seen

RTMsEAALVRK (RTM[pS]EAALVRK; listed as Homo sapiens) [RASSF6]
TIL responses to phosphopeptide (IL-2, IFNγ, TNFα) ([1]; TILs extracted from tumors and expanded): responses were seen

RVAsPTSGV (RVA[pS]PTSGV; listed as Homo sapiens) [IRS2 (A2), HLA-A*0201 phosphopeptide from insulin receptor substrate 2]
Tumor growth control by the T cells (xenograft tumor): controlled tumor growth | Generation of phosphopeptide-specific CD8+ T cells (CD8+ T cells): can be generated | Recognition and killing of human melanoma and breast tumors by the T cells [2]: capable of recognizing and killing | Killing of SW620 by phosphopeptide-specific T cell line (CRC cell line SW620): specifically kill

VMIGsPKKV (VMIG[pS]PKKV; listed as Homo sapiens) [Tensin 3 phosphopeptide]
Phosphopeptide-specific memory T cell response (memory T cells): capable of inducing a strong phosphopeptide-specific memory T cell response
